Measurements reported in US12419897B2 (President and Fellows of Harvard College, priority 2018, dated 2025).
Entries after “also recorded” stand apart in the source; their conditions may differ.

Assays:
[1] = test system: NCI-H716 cells; experiment: Intracellular calcium levels in NCI-H716 cells (L-cells); type: cell-based, human; settings: NCI-H716 cells (L-cells) in vitro
[2] = test system: DIO mice; experiment: Acute treatment of DIO mice via duodenal and rectal catheters: GLP-1 and blood glucose; type: in vivo, mouse; settings: HFD-fed (DIO) mice, 1 mg, vs PBS; for systemic GLP-1 levels in vivo: within 15 minutes
Method: Next, the ability of CA7S to stimulate GLP-1 secretion and improve hyperglycemia in vivo was evaluated. DIO mice were treated with either CA7S or PBS via duodenal and rectal catheters (FIG. 17A).

[3] = test system: Caco-2 cells; experiment: Caco-2 cell viability assay (CellTiter-Glo, ATP luminescence); type: cell-based; settings: concentrations up to 3 mM
Method: Compounds were also tested for toxicity using Caco-2 cells, a human intestinal epithelial cancer cell line. Caco-2 cells were incubated with compounds for 16 hours and cell death was determined using a luminescence assay measuring ATP levels as a readout for cell viability.
Cell viability assay. Caco-2 cells were treated with compounds diluted in DMSO in complete MEM media. The concentration of DMSO was kept constant and used as a negative control. Cells were incubated with compounds overnight at 37° C. in an atmosphere of 5% CO2. The next day, cell viability was measured using CellTiter-Glo Luminescent Cell Viability Assay from Promega Corporation according to manufacturer's instructions. Luminescence was measured using the SpectraMax M5 plate reader (Molecular Devices, San Jose, Calif.) at the ICCB-Longwood Screening Facility at Harvard Medical School. Luminescence was normalized to DMSO control and percentage relative luminescence was calculated compared to DMSO control.

[4] = target: T1, human TGR5 (Homo sapiens, UniProt Q8TDU6); experiment: Luciferase reporter assay for human TGR5 activation in HEK293T cells overexpressing human TGR5; type: cell-based; settings: for TGR5 activation: HEK293T cells overexpressing human TGR5, luminescence readout; for EC50: HEK293T cells overexpressing human TGR5
T1 construct: expressed in transfected cells; host or cells: HEK293T
T1 sequence (Q8TDU6 1-330): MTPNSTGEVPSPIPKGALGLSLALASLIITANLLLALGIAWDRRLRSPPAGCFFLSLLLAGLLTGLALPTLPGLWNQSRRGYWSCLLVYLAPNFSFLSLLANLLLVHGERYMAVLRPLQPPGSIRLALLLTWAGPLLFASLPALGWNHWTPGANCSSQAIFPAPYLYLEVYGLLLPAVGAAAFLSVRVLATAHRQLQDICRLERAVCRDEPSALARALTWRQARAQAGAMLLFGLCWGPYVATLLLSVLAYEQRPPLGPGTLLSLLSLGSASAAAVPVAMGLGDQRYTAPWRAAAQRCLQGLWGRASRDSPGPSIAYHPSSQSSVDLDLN
Method: Human TGR5 was overexpressed in HEK93T cells along with a luciferase-based TGR5 reporter plasmid. Cells were then incubated with different concentrations of compounds overnight, and TGR5 activation was measured as a luminescence readout.
Plasmids and transient transfections. Human TGR5 was cloned using cDNA from human Caco-2 cells as template and a forward primer with an EcoRIrestriction-site (5′-[…]-3′) and a reverse primer with a XhoI-site (5′-[…]-3′). The PCR product was cloned into the pCDNA 3.1+plasmid (Promega Corporation, Madison, Wis.) and transfected at a concentration of 0.4 μg/ml of media. For luciferase reporter assays for TGR5 activation, the pGL4.29[luc2P/CRE/Hygro] plasmid (Promega Corporation), and the pGL4.74[hRluc/CMV] plasmid (Promega Corporation) were used at concentration of 2 μg/ml and 0.05 μg/ml of media respectively. All plasmids were transfected using Opti-MEM (Gibco) and Lipofectamine 2000 (Invitrogen, Life Technologies, Grand Island, N.Y., USA) according to manufacturer's instructions. Plasmid transfection were performed in antibiotic-free media (MEM for HEK293T and RPMI for Matrigel-attached NCI-H716 cells) with 10% FBS. After overnight incubation, compounds were added in complete media and incubated overnight. Cells were harvested the next day for luciferase assay.
Luciferase reporter assay. Luminescence was measured using the Dual-Luciferase Reporter Assay System (Promega Corporation) according to manufacturer's instructions. Cells were washed gently with PBS and lysed in PLB from the kit. Matrigel-attached cells were scraped in PLB. Luminescence was measured using the SpectraMax M5 plate reader (Molecular Devices, San Jose, Calif.) at the ICCB-Longwood Screening Facility at Harvard Medical School. Luminescence was normalized to Renilla luciferase activity and percentage relative luminescence was calculated compared to DMSO control.

[5] = test system: NCI-H716 cells; experiment: GLP-1 synthesis and secretion in NCI-H716 cells; type: cell-based, human; settings: for GLP-1 secretion by CA7S extracted from cecal contents of SG mice: 500 μM; for GLP-1 secretion by CA7S extracted from cecal contents of SG mice / total GLP-1 (GLP-1 synthesis): vs DMSO control; for GLP-1 secretion: in vitro; for total GLP-1 (GLP-1 synthesis): media + cell lysates
Method: GLP-1 synthesis and secretion were measured in matrigel-polarized NCI-H716 cells. […] (FIG. 28B)
Treatment with compounds. […] The cells were allowed to grow for 2 days in complete RPMI media. […] The concentration of DMSO was kept constant throughout the treatments and used as a negative control. Cells were incubated at 37° C. in an atmosphere of 5% CO2 for 2 hours. After the incubation period, cell culture media was collected in Eppendorf tubes containing 1% trifluoroacetic acid (TFA, Sigma) in sterile purified water (GenClone) to make a final TFA concentration of 0.1% and frozen at −80° C. for further GLP-1 measurements. Cells on cell culture plates were placed on ice and gently washed with PBS (GenClone). Cells used for GLP-1 measurements were treated with ice-cold cell lysis solution of 1% TFA, 1N hydrochloric acid, 5% formic acid, and 1% NaCl (all from Sigma), scraped off of the Matrigel coating, and collected in 96-well plates for peptide purification. Lysates were stored at −80° C. for further analysis.
GLP-1 measurement. Total GLP-1 peptide measurements were performed using the GLP-1 EIA Kit (Sigma, Cat. No. RAB0201) according to manufacturer's instructions. Cell culture media and cell lysates were subjected to peptide purification using Sep Pak C18 Classic columns (Waters Corporation, Milford, Mass.). The column was pretreated with a solution of 0.1% TFA in 80% isopropyl alcohol (EMD Millipore) and equilibrated with 0.1% TFA in water. Cell culture media and cell lysates were loaded onto the column and washed with […]. The peptides were eluted in […]. The eluate was concentrated by drying under vacuum and resuspended in 0.1% TFA in water. 0.1% TFA in water was used as ‘blank’ for cell culture media and purified cell lysate ELISAs. Excess samples were stored at −80° C. for later analyses. Total GLP-1 amounts in the cell culture media (secreted) and cell lysates were calculated using a standard curve provided in the EIA kit.

[6] = Stability after incubation in buffer at physiological pHs (UPLC-MS); type: physicochemical; settings: 37° C. in buffer at physiological pHs
[7] = listed as Cholic acid 7-sulfate
[8] = listed as cholic acid 7-sulfate
[9] = HFD-fed mice, acute cholic acid 7-sulfate treatment

Structure (SMILES): C[C@H](CCC(=O)O)[C@H]1CC[C@H]2[C@@H]3[C@H](OS(=O)(=O)O)C[C@@H]4C[C@H](O)CC[C@]4(C)[C@H]3C[C@H](O)[C@]12C [CA7S, cholic acid 7-sulfate]
- intracellular calcium levels [1]: dose-dependent increase in calcium levels
- intracellular calcium levels [1, 7]: increased calcium levels
- blood glucose levels in vivo ([2]; within 15 min): reduced blood glucose levels
- systemic GLP-1 levels in vivo [2]: increased systemic GLP-1 levels
- systemic GLP-1 levels in vivo [2, 8]: induced GLP-1 levels
- viability of Caco-2 cells [3]: does not affect the viability
- viability of Caco-2 cells [3, 7]: no toxicity
- TGR5 activation [4]: activated human TGR5 in a dose-dependent manner
- TGR5 activation [4, 7]: induces TGR5 activation
- GLP-1 secretion by CA7S extracted from cecal contents of SG mice [5]: also induced GLP-1 secretion in vitro
- GLP-1 secretion by CA7S extracted from cecal contents of SG mice [5, 8]: exhibit activity inducing GLP-1 secretion
- GLP-1 secretion after siRNA-mediated knockdown of TGR5 [5]: abolished
- GLP-1 secretion after siRNA-mediated knockdown of TGR5 [5, 8]: abolished GLP-1 secretion
- GLP-1 secretion [5]: induced GLP-1 secretion to a similar degree as TDCA in a dose-dependent manner
- GLP-1 secretion [5, 7]: induces GLP-1 secretion in vitro better than the known GLP-1 inducer TDCA
- pH stability [6]: stable at physiological pHs
- pH stability [6, 7]: stable in a wide range of pHs
- Cholic acid 7-sulfate concentration (mean ± SEM), Cecum [9]: 2577 ± 185.3 pmol/mg
- Cholic acid 7-sulfate concentration (mean ± SEM), Hepatic portal vein [9]: 6.128 ± 2.111 pmol/mg
- CA7S in cecal contents, on average (administration of 1 mg, duodenal and rectal catheters): 2500 pmol/mg wet mass
- cholic acid 7-sulfate in the cecum (dosing with 1 mg): ~2500 µM
- amounts in systemic circulation and portal vein (gut restriction) (ectopic introduction in mice, listed as cholic acid 7-sulfate): only minor amounts

Structure (SMILES): C[C@H](CCC(=O)O)[C@H]1CCC2[C@H]3C(CC[C@@]21C)[C@@]1(C)CC[C@@H](O)C[C@H]1C[C@H]3S(=O)(=O)O (stereo partly drawn) [Compound 6, (4R)-4-((3R,5S,7R,8R,10S,13R,17R)-3-hydroxy-10,13-dimethyl-7-sulfohexadecahydro-1H-cyclopenta[a]phenanthren-17-yl)pentanoic acid]
- TGR5 activation [4]: induced TGR5 activation in a dose-dependent manner; also recorded: activated TGR5
- GLP-1 secretion [5]: induced an increase in GLP-1 synthesis and secretion
- total GLP-1 (GLP-1 synthesis) [5]: increased total GLP-1; also recorded: induced an increase in GLP-1 synthesis and secretion

Structure (SMILES): C[C@H](CCC(=O)O)[C@H]1CC[C@H]2[C@@H]3[C@H](NS(=O)(=O)O)C[C@@H]4C[C@H](O)CC[C@]4(C)[C@H]3CC[C@]12C [Compound 2]
- EC50 [4]: 1700 nM
- TGR5 activation [4]: induced TGR5 activation in a dose-dependent manner; also recorded: activate TGR5
- GLP-1 secretion [5]: induced GLP-1 secretion; also recorded: induce GLP-1 synthesis and secretion
- total GLP-1 (GLP-1 synthesis) [5]: increased total GLP-1; also recorded: induce GLP-1 synthesis and secretion

Structure (SMILES): C[C@H](CCC(=O)O)[C@H]1CC[C@H]2[C@@H]3[C@H](NS(=O)(=O)O)[C@H](O)[C@@H]4C[C@H](O)CC[C@]4(C)[C@H]3CC[C@]12C [Compound 3]
- TGR5 activation [4]: induced TGR5 activation in a dose-dependent manner; also recorded: activate TGR5
- GLP-1 secretion [5]: induced GLP-1 secretion; also recorded: induce GLP-1 synthesis and secretion
- total GLP-1 (GLP-1 synthesis) [5]: increased total GLP-1; also recorded: induce GLP-1 synthesis and secretion

Structure (SMILES): C[C@H](CCC(=O)O)[C@H]1CC[C@H]2[C@@H]3[C@H](NS(=O)(=O)O)C[C@@H]4C[C@H](O)CC[C@]4(C)[C@H]3C[C@H](O)[C@]12C [Compound 1]
- EC50 [4]: 2400 nM
- TGR5 activation [4]: induced TGR5 activation in a dose-dependent manner; also recorded: activate TGR5
- GLP-1 secretion [5]: induce GLP-1 synthesis and secretion
- total GLP-1 (GLP-1 synthesis) [5]: increased total GLP-1; also recorded: induce GLP-1 synthesis and secretion

Structure (SMILES): C[C@H](CCC(=O)O)[C@H]1CC[C@H]2[C@@H]3[C@H](O)C[C@@H]4C[C@H](O)CC[C@]4(C)[C@H]3C[C@H](O)[C@]12C [CA, cholic acid]
- GLP-1 secretion [5]: had no effect on GLP-1 secretion
- GLP-1 secretion ([5]; listed as cholic acid): had no effect

Structure (SMILES): C[C@H](CCC(=O)NCCS(=O)(=O)O)[C@H]1CC[C@H]2[C@@H]3CC[C@@H]4C[C@H](O)CC[C@]4(C)[C@H]3C[C@H](O)[C@]12C [TDCA, tauro-deoxycholic acid]
- GLP-1 secretion after siRNA-mediated knockdown of TGR5 [5]: abolished
